Experimental findings from patent EP0523769B1, “Gram-positive alkaliphilic microorganisms” (GENENCOR INTERNATIONAL, INC., priority 1991, dated 1993) are described below.

In this assay the test system is Gram-positive alkaliphilic bacteria. Put plainly: Antibiotic sensitivity, susceptibility test discs (characters 84-105). Format: cell-based.

Polymixin: the “Percentage Positive States, antibiotic sensitivity” value (shortened to “Percentage Positive States”) runs as follows: (CLUSTER 1) 40%; (CLUSTER 2) 20%; (CLUSTER 3) 0%; (CLUSTER 4) 0%; (CLUSTER 5) 0%; (CLUSTER 6) 0%.
As for Gentamycin, the “Percentage Positive States” value is, setting by setting: (CLUSTER 1) 60%; (CLUSTER 2) 0%; (CLUSTER 3) 50%; (CLUSTER 4) 50%; (CLUSTER 5) 50%; (CLUSTER 6) 25%.
Consider Tetracyclin, for which the “Percentage Positive States” value was determined as 80% (CLUSTER 1); 60% (CLUSTER 2); 0% (CLUSTER 3); 100% (CLUSTER 4); 100% (CLUSTER 5); 25% (CLUSTER 6).
In the case of `NC[C@@H]1O[C@H](O[C@H]2[C@@H](O)[C@H](O[C@@H]3[C@@H](O)[C@H](N)C[C@H](N)[C@H]3O[C@H]3O[C@H](CN)[C@@H](O)[C@H](O)[C@H]3N)O[C@@H]2CO)[C@H](N)[C@@H](O)[C@@H]1O` [Neomycin], the “Percentage Positive States” value worked out at 0% (CLUSTER 1); 0% (CLUSTER 2); 0% (CLUSTER 3); 50% (CLUSTER 4); 17% (CLUSTER 5); 0% (CLUSTER 6).
